Test results published in patent publication US12612412B2, “Antiviral heterocyclic compounds” (Enanta Pharmaceuticals, Inc., priority 2021, dated 2026).

What was measured:
[1] = system: genotype A, "Long" strain RSV; test: RSV-A assay (CPE protection in Hep-2 cells, ATPlite readout); assay type: cell-based, Human respiratory syncytial virus (HRSV); conditions: human respiratory syncytial virus, RSV-A Long strain, MOI 0.1, CPE protection, read-out: Human RSV-A (“Long”) EC50
In short: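 ATPlite luminescence (cellular ATP) served as the measure of cell health after 5 days of infection. Hep-2 cells at 8,000 per well received duplicate 2-fold compound dilutions plus virus at MOI 0.1, and EC50 was calculated from CPE protection.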

[2] = system: HMPV clinical isolate TN/1501/A1; test: HMPV antiviral assay Method-B (clinical isolate TN/1501/A1 in LLC-MK2 cells, ATP-Lite readout); assay type: cell-based, Human metapneumovirus (HMPV); conditions: human metapneumovirus, LLC-MK2, 144 h, hMPV WT1501 (clinical isolate TN/1501/A1), 6 days
In short: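 LLC-MK2 cells infected in suspension with TN/1501/A1 at MOI 0.014 in serum-free medium with 2 μg/mL TPCK-trypsin (final), incubated 6 days at 37° C. Compounds tested in duplicate, 10-point 3-fold dilutions from 10 μM. Cell health read by ATP-Lite luminescence, normalised to virus-only and cells-only controls; EC50 by four-parameter logistic fit.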

Row | SMILES | EC50 [1] | EC50 [2]
1 | COc1cc(C(=O)NC[C@](O)(c2cc3c(c(-c4ccc(F)c(Cl)c4)n2)OC[C@]3(CF)C(N)=O)C(F)(F)F)cc2cn(C3CC3)nc12 [Example 1052] | < 200 nM | < 500 nM
2 | NC(=O)[C@]1(CF)COc2c1cc([C@@](O)(CNC(=O)c1cc(OC3CC3)c3ncccc3c1)C1CC1)nc2-c1ccc(F)cc1 [Example 1053] | > 200 nM | > 500 nM
3 | NC(=O)[C@@]1(CF)COc2c1cc([C@@](O)(CNC(=O)c1cc(OC3CC3)c3ncccc3c1)C1CC1)nc2-c1ccc(F)cc1 [Example 1054] | < 200 nM | > 500 nM
4 | COc1cc(C(=O)NC[C@](O)(c2cc3c(c(-c4ccc(F)cc4)n2)OC[C@@]3(CF)C(N)=O)C2CC2)cc2cc(Cl)c(C)nc12 [Example 1055] | > 200 nM | > 500 nM
5 | COc1cc(C(=O)NC[C@](O)(c2cc3c(c(-c4ccc(F)cc4)n2)OC[C@]3(CF)C(N)=O)C2CC2)cc2cc(Cl)c(C)nc12 [Example 1056] | < 200 nM | < 500 nM
6 | Cc1cnc2c(OC(F)F)cc(C(=O)NC[C@](O)(c3cc4c(c(-c5ccc(F)cc5)n3)OC[C@@]4(CF)C(N)=O)C3CC3)cc2c1 [Example 1057] | > 200 nM | > 500 nM
7 | Cc1cnc2c(OC(F)F)cc(C(=O)NC[C@](O)(c3cc4c(c(-c5ccc(F)cc5)n3)OC[C@]4(CF)C(N)=O)C3CC3)cc2c1 [Example 1058] | < 200 nM | < 500 nM
8 | COc1cc(C(=O)NC[C@](O)(c2cc3c(c(-c4ccc(F)cc4)n2)OC[C@@]3(CF)C(N)=O)C2CC2)cc2cc(C3CC3)nn12 [Example 1059] | > 200 nM | > 500 nM
9 | COc1cc(C(=O)NC[C@](O)(c2cc3c(c(-c4ccc(F)cc4)n2)OC[C@]3(CF)C(N)=O)C2CC2)cc2cc(C3CC3)nn12 [Example 1060] | < 200 nM | < 500 nM
10 | COc1cc(C(=O)NC[C@](O)(c2cc3c(c(-c4ccc(F)cc4)n2)OC[C@@]3(CF)C(N)=O)C2CC2)cc2cn(C(F)F)nc12 [Example 1061] | > 200 nM | > 500 nM
11 | COc1cc(C(=O)NC[C@](O)(c2cc3c(c(-c4ccc(F)cc4)n2)OC[C@]3(CF)C(N)=O)C2CC2)cc2cn(C(F)F)nc12 [Example 1062] | < 200 nM | < 500 nM
12 | COc1cc(C(=O)NC[C@](O)(c2cc3c(c(-c4ccc(F)cc4)n2)OC[C@@]3(CF)C(N)=O)C2CC2)cc2cn(C3CC3)nc12 [Example 1063] | > 200 nM | > 500 nM
13 | COc1cc(C(=O)NC[C@](O)(c2cc3c(c(-c4ccc(F)cc4)n2)OC[C@]3(CF)C(N)=O)C2CC2)cc2cn(C3CC3)nc12 [Example 1064] | < 200 nM | < 500 nM
14 | COc1cc(C(=O)NC[C@](O)(c2cc3c(c(-c4ccc(F)cc4)n2)OC[C@@]3(C(N)=O)C2CC2)C(F)(F)F)cc2cc(C3CC3)nn12 [Example 1065] | < 200 nM | < 500 nM
15 | COc1cc(C(=O)NC[C@](O)(c2cc3c(c(-c4ccc(F)cc4)n2)OC[C@]3(C(N)=O)C2CC2)C(F)(F)F)cc2cc(C3CC3)nn12 [Example 1066] | > 200 nM | > 500 nM
16 | C[C@]1(C(N)=O)COc2c1cc([C@@](O)(CNC(=O)c1cc3c(cn1)OC(F)(F)O3)C(F)(F)F)nc2-c1ccc(F)cc1 [Example 1067] | < 200 nM | > 500 nM
17 | COc1cc(C(=O)NC[C@](O)(c2cc3c(c(-c4ccc(F)cc4)n2)OC[C@]3(C)C(N)=O)C(F)(F)F)cc2cn(C(F)(F)F)nc12 [Example 1068] | < 200 nM | < 500 nM
18 | COc1cc(C(=O)NC[C@](O)(c2cc3c(c(-c4ccc(F)cc4)n2)OC[C@]3(C)C(N)=O)C(F)(F)F)cc2cc(C(F)F)nnc12 [Example 1069] | < 200 nM | > 500 nM
19 | COc1cc(C(=O)NC[C@](O)(c2cc3c(c(-c4ccc(F)c(Cl)c4F)n2)OC[C@]3(C)C(N)=O)C2CC2)cc2cc(C)c(Cl)nc12 [Example 1072] | < 200 nM | < 500 nM
20 | COc1cc(C(=O)NC[C@](O)(c2cc3c(c(-c4ccc5c(c4)OC(F)(F)O5)n2)OC[C@]3(C)C(N)=O)C2CC2)cc2cc(C)c(Cl)nc12 [Example 1074] | < 200 nM | < 500 nM
21 | COc1cc(C(=O)NC[C@](O)(c2cc3c(c(-c4ccc(F)c(C#N)c4F)n2)OC[C@]3(C)C(N)=O)C(F)(F)F)cc2cn(C3CC3)nc12 [Example 1080] | < 200 nM | < 500 nM
22 | COc1cc(C(=O)NC[C@](O)(c2nc(-c3cc(Cl)c(F)cc3F)c3c(c2Cl)[C@@](C)(C(N)=O)CO3)C2CC2)cc2cn(C3CC3)nc12 [Example 1081] | < 200 nM | < 500 nM
23 | Cc1cnc2c(Cl)cc(C(=O)NC[C@](O)(c3cc4c(c(-c5ccc(F)c(Br)c5F)n3)OC[C@]4(C)C(N)=O)C3CC3)cc2c1 [Example 1084] | < 200 nM | < 500 nM

Row | SMILES | EC50 [1] | EC50 [2]
24 | COc1cc(C(=O)NC[C@](O)(c2cc3c(c(-c4cccc(Br)c4F)n2)OC[C@]3(C)C(N)=O)C2CC2)cc2cn(C3CC3)nc12 [Example 1085] | < 200 nM | < 500 nM
25 | COc1cc(C(=O)NC[C@](O)(c2cc3c(c(-c4cccc(Br)c4F)n2)OC[C@]3(C)C(N)=O)C2CC2)cc2cn(C3(F)CC3)nc12 [Example 1087] | < 200 nM | < 500 nM
26 | COc1cc(C(=O)NC[C@](O)(c2cc3c(c(-c4cc(Br)c(F)cc4F)n2)OC[C@]3(C)C(N)=O)C2CC2)cc2cn(C3CC3)nc12 [Example 1088] | < 200 nM | < 500 nM
27 | COc1cc(C(=O)NC[C@](O)(c2cc3c(c(-c4cc(Br)c(F)cc4F)n2)OC[C@]3(C)C(N)=O)C2CC2)cc2cn(C3(F)CC3)nc12 [Example 1089] | < 200 nM | < 500 nM
28 | COc1cc(C(=O)NC[C@](O)(c2cc3c(c(-c4ccc(F)cc4)n2)OC[C@]3(C)C(N)=O)C(F)(F)F)cc2cc(Br)c(Cl)nc12 [Example 1090] | < 200 nM | > 500 nM
29 | Cc1cnc2c(Cl)cc(C(=O)NC[C@](O)(c3cc4c(c(-c5cccc(Br)c5F)n3)OC[C@]4(C)C(N)=O)C3CC3)cc2c1 [Example 1091] | < 200 nM | < 500 nM
30 | COc1cc(C(=O)NC[C@](O)(c2cc3c(c(-c4cccc(Br)c4F)n2)OC[C@]3(C)C(N)=O)C2CC2)cc2cc(Cl)c(C)nc12 [Example 1092] | < 200 nM | < 500 nM
31 | Cc1cnc2c(Cl)cc(C(=O)NC[C@](O)(c3cc4c(c(-c5cc(Br)c(F)cc5F)n3)OC[C@]4(C)C(N)=O)C3CC3)cc2c1 [Example 1093] | < 200 nM | < 500 nM
32 | COc1cc(C(=O)NC[C@](O)(c2cc3c(c(-c4cc(Br)c(F)cc4F)n2)OC[C@]3(C)C(N)=O)C2CC2)cc2cc(Cl)c(C)nc12 [Example 1094] | < 200 nM | < 500 nM
33 | C[C@]1(C(N)=O)COc2c1cc([C@@](O)(CNC(=O)c1ccc3nn(C4CC4)cc3c1)C1CC1)nc2-c1cc(Br)c(F)cc1F [Example 1095] | < 200 nM | < 500 nM
34 | C[C@]1(C(N)=O)COc2c1cc([C@@](O)(CNC(=O)c1cc(Cl)c3nn(C4CC4)cc3c1)C1CC1)nc2-c1cc(Br)c(F)cc1F [Example 1096] | < 200 nM | < 500 nM
35 | COc1cc(C(=O)NC[C@](O)(c2cc3c(c(-c4cc(Br)c(F)cc4F)n2)OC[C@]3(C)C(N)=O)C2CC2)cc2cn(C(F)F)nc12 [Example 1097] | < 200 nM | < 500 nM
36 | COc1cc(C(=O)NC[C@](O)(c2cc3c(c(-c4cccc(Br)c4F)n2)OC[C@]3(C)C(N)=O)C2CC2)cc2cn(C(F)F)nc12 [Example 1098] | < 200 nM | < 500 nM
37 | C[C@]1(C(N)=O)COc2c1cc([C@@](O)(CNC(=O)c1cc(Cl)c3nn(C4CC4)cc3c1)C1CC1)nc2-c1cccc(Br)c1F [Example 1099] | < 200 nM | < 500 nM
38 | C[C@]1(C(N)=O)COc2c1cc([C@@](O)(CNC(=O)c1ccc3nn(C4CC4)cc3c1)C1CC1)nc2-c1cccc(Br)c1F [Example 1100] | < 200 nM | < 500 nM
39 | C[C@]1(C(N)=O)COc2c1cc([C@@](O)(CNC(=O)c1ccc3nn(C4CC4)cc3c1)C1CC1)nc2-c1ccc(F)c(Br)c1F [Example 1101] | < 200 nM | < 500 nM
40 | Cc1cnc2c(Cl)cc(C(=O)NC[C@](O)(c3cc4c(c(-c5ccc(F)c(C(F)(F)F)c5)n3)OC[C@]4(C)C(N)=O)C3CC3)cc2c1 [Example 1102] | < 200 nM | < 500 nM
41 | COc1cc(C(=O)NC[C@](O)(c2cc3c(c(-c4ccc(F)c(C(F)(F)F)c4)n2)OC[C@]3(C)C(N)=O)C2CC2)cc2cc(Cl)c(C)nc12 [Example 1103] | < 200 nM | < 500 nM
42 | COc1cc(C(=O)NC[C@](O)(c2cc3c(c(-c4ccc(F)cc4)n2)OC[C@]3(C)C(N)=O)C(F)(F)F)cc2cc(Cl)c(Cl)nc12 [Example 1104] | > 200 nM | > 500 nM
43 | COc1cc(C(=O)NC[C@](O)(c2cc3c(c(-c4ccc(F)cc4)n2)OC[C@]3(C)C(N)=O)C2CC2)cc2cc(Cl)c(Cl)nc12 [Example 1105] | < 200 nM | > 500 nM
44 | Cc1cnc2c(OC(F)F)cc(C(=O)NC[C@](O)(c3cc4c(c(-c5cc(Br)c(F)cc5F)n3)OC[C@]4(C)C(N)=O)C3CC3)cc2c1 [Example 1106] | < 200 nM | < 500 nM
45 | C[C@]1(C(N)=O)COc2c1cc([C@@](O)(CNC(=O)c1cc(Cl)c3nn(C4CC4)cc3c1)C(F)(F)F)nc2-c1cccc(F)c1Cl [Example 1119] | < 200 nM | < 500 nM
46 | COc1cc(C(=O)NC[C@](O)(c2cc3c(c(-c4cccc(F)c4Cl)n2)OC[C@]3(C)C(N)=O)C(F)(F)F)cc2cn(C(F)F)nc12 [Example 1120] | < 200 nM | < 500 nM
